Data on one compound can be found in patent publication US12344610B2, “APOL1 inhibitors and methods of use” (Maze Therapeutics, Inc., priority 2022, dated 2025).

pEC50: −log10 of the molar value.

Holding throughout (assay type): cell-based
Test [1] relates to Trypanosoma brucei Lister 427 VSG221 with APOL1 G0 recombinant protein. The experiment in a line: APOL1 G0 trypanosome cell rescue assay (Example B5). The conditions noted are these: Trypanosoma brucei, 20 h, read-out: APOL1 G0 Trypanosome Rescue EC50, Trypanosoma brucei Lister 427 VSG221 with APOL1 G0 recombinant protein, 20 hours, CellTiter-Glo; geometric mean of at least 2 assay runs; † = single assay run. In a few lines: (§1)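 Recombinant mature APOL1 (residues 28-398, His-tag removed, E. coli-expressed, refolded from inclusion bodies, DDM buffer) at […] added with 250 trypanosomes/well in modified HMI-9 media. Duplicate 11-point 2-fold compound series, 0.4% DMSO; 20 h at 37° C, 5% CO2, then CellTiter-Glo luminescence for viability.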

Test [2] concerns Trypanosoma brucei Lister 427 VSG221 with APOL1 G2 recombinant protein. The experiment in a line: APOL1 G2 trypanosome cell rescue assay (Example B5). The note with it: Trypanosoma brucei, 20 h, read-out: APOL1 G2 Trypanosome Rescue EC50, Trypanosoma brucei Lister 427 VSG221 with APOL1 G2 recombinant protein, 20 hours, CellTiter-Glo; geometric mean of at least 2 assay runs; † = single assay run. A digest of the protocol: as §1
On the technique in general: ATP-based viability assays read luminescence as a measure of living cells.

Test [3] concerns Trypanosoma brucei Lister 427 VSG221 with APOL1 G1 recombinant protein. Put plainly: APOL1 G1 trypanosome cell rescue assay (Example B5). The note with it: Trypanosoma brucei, 20 h, read-out: APOL1 G1 Trypanosome Rescue EC50, Trypanosoma brucei Lister 427 VSG221 with APOL1 G1 recombinant protein, 20 hours, CellTiter-Glo; geometric mean of at least 2 assay runs; † = single assay run. A digest of the protocol: as §1

Test [4] has as its system HEK293 clonal cell line overexpressing APOL1 G1. The experiment in a line: APOL1 G1 HEK293 cell rescue assay (Example B3). The conditions noted are these: Homo sapiens, HEK293, HEK293 clonal line overexpressing APOL1 G1; geometric mean of at least 2 runs; † = single run; ¥ = concentration at 50% rescue estimated (no sigmoidal curve). A digest of the protocol:
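HEK293 clonal line overexpressing APOL1 G1; EC50 is half-maximal reversal of APOL1-induced cell death. Values are the geometric mean of ≥2 runs on separate days, each run the average of duplicate wells. Where no sigmoidal curve could be fitted, the concentration giving 50% rescue was estimated.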

On to `C[C@]1(O)C[C@@H](n2c(=O)[nH]c3cc(OCCN4CCC5(CC4)C(=O)Nc4ccc(C#N)cc45)cc(C(F)(F)F)c32)C1` [Compound 470, 2-oxo-1′-[2-({2-oxo-1-[(cis)-3-hydroxy-3-methylcyclobutyl]-7-(trifluoromethyl)-2,3-dihydro-1H-1,3-benzodiazol-5-yl}oxy)ethyl]-1,2-dihydrospiro[indole-3,4′-piperidine]-5-carbonitrile], for which the pEC50 (in general, the EC50 on a negative log10 scale, so that one unit is a factor of ten) in test [1] is 8.05; in test [2], 8.36; in test [3], 7.91; in test [4] it was 7.32.
